14 compounds from patent EP2488529B1, “Spirocyclic derivatives as histone deacetylase inhibitors” (DAC S.r.l., priority 2009, dated 2011) can be followed below.

Where two headings read alike, the source gives them in different places. A value given as a limit tells only on which side of the number the result lay.

For one assay, the target named is HDAC. The assay can be described thus: Assay of enzyme inhibition of HDAC (BIOMOL kit, fluorescence). It is filed as biochemical. The note with it: nuclear fraction of Hela cells; substrate 200 µM; 15 min at RT. The method, then: The in-vitro activity of HDAC inhibitors was assayed using a BIOMOL Kit, according to the instructions from the manufacturer (Biomolecular Research Laborator). 15 µl of 30 x diluted nuclear fraction of Hela cells, was diluted to 50 µl with the assay buffer containing the HDAC inhibitor and the substrate (lysine with acetylated amino group on the side chain) at a concentration of 200 µM. The samples were incubated for 15 min at RT and then exposed to a developer (10 min at RT). In this last step a fluorophore was produced, whose fluorescence was measured using an excitation wavelength of 355 nm and an emission at 460 nm. The IC50 was calculated using GraphPad Software.

The next assay relates to HCT-116. The assay is described as follows: Cell growth, CellTiter-Glo Luminescent Cell Viability Assay (antiproliferative assay). The note with it: HCT-116 cells, incubated for 72 h, read-out: HCT116 IC50. It is filed as cell-based. An excerpt:
(§1) CellTiter-Glo® Luminescent Cell Viability Assay (Promega) is a homogeneous method of determining the number of viable cells in culture based on quantitation of the present ATP, which indicates the presence of metabolically active cells. The homogeneous assay procedure involves addition of a single reagent (CellTiter-Glo® Reagent) directly to the cells, which leads to cell lysis and generation of a luminescent signal proportional to the amount of the ATP and the number of cells present in culture. The assay relies on the properties of a proprietary thermostable luciferase (Ultra-Glo® recombinant luciferase), which generates a luminescent signal. K562, A549, and HCT-116 cells, in exponential growth, were incubated for 72 h with different concentrations of the inhibitors. After 72 h, a volume of CellTiter-Glo® Reagent equal to the volume of cell culture medium was added. The content was mixed for 2 min to induce cell lysis. The luminescence was recorded after further 10 min at RT in order to obtain a stable luminescent signal.
(§2) The IC50 was calculated using GraphPad Software.
Background: Cellular ATP, detected with luciferase, serves as a proxy for viable cell number.

The next assay relates to K562. Described as above. It is filed as cell-based. The note with it: K562 cells, incubated for 72 h.
Source text: as §1, §2

For the next assay, the system named is A549. The description is as above. The note with it: A549 cells, incubated for 72 h. It is filed as cell-based.
Source text: as §1, §2

The term IC50 denotes the concentration that inhibits the measured activity by half. On to `Cc1cc(/C=C/C(=O)NO)cc2c1OC1(CCN(Cc3ccccc3)CC1)CC2=O` [Example 52, (E)-3-(1'-Benzyl-8-methyl-4-oxospiro[chroman-2,4'-piperidine]-6-yl)-N-hydroxy-acrylamide], for which the half-maximal inhibitory concentration (IC50) was 0.1 to 1 µM against HDAC, ≤ 1 µM in the assay with HCT-116 (Homo sapiens), ≤ 1 µM with K562 (Homo sapiens) and 1 to 3 µM in the assay on A549 (Homo sapiens).
For `Cn1cc(CN2CCCC3(C2)NC(=O)c2cc(/C=C/C(=O)NO)ccc2O3)c2ccccc21` (racemic) [Example 46, (±)-(E)-3-{1'-(1-Methyl-1H-indol-3-ylmethyl)-4-oxo-spiro[2H-(1,3)-benzoxazine-2,3'-piperidin]-6-yl}-N-hydroxy-acrylamide], the IC50 against HDAC is 0.1 to 1 µM; with HCT-116 (Homo sapiens), ≤ 1 µM; in the assay on K562 (Homo sapiens), ≤ 1 µM; in the assay with A549 (Homo sapiens), ≤ 1 µM.
On to `CN1CCCC2(C1)NC(=O)c1cc(/C=C/C(=O)NO)ccc1O2` (racemic) [Example 41, (±)-(E)-3-{1'-Methyl-3,4-dihydro-4-oxo-spiro[2H-(1,3)-benzoxazine-2,3'-piperidin]-6-yl}-N-hydroxy-acrylamide], for which the IC50 was 0.1 to 1 µM on HDAC, ≤ 1 µM in the assay on HCT-116 (Homo sapiens), ≤ 1 µM in the assay on K562 (Homo sapiens) and 1 to 3 µM in the assay on A549 (Homo sapiens).
Regarding `CN1CCC2(CC(=O)c3cc(/C=C/C(=O)NO)ccc3O2)C1` (racemic) [Example 7, (±)-(E)-3-[1'-Methyl-4-oxo-spiro(chromane-2,3'-pyrrolidine)-6-yl]-N-hydroxy-acrylamide], the IC50 against HDAC is 0.1 to 1 µM; with HCT-116 (Homo sapiens) it was ≤ 1 µM; with K562 (Homo sapiens), ≤ 1 µM; in the assay with A549 (Homo sapiens) it was ≤ 1 µM.
Consider `O=C(/C=C/c1ccc2c(c1)C(=O)CC1(CCNC1)O2)NO` (racemic) [Example 1, (±)-(E)-3-[4-Oxo-spiro(chromane-2,3'-pyrrolidine)-6-yl]-N-hydroxy-acrylamide], for which the IC50 is 0.1 to 1 µM on HDAC, 1 to 3 µM with HCT-116 (Homo sapiens), ≥ 3 µM in the assay with K562 (Homo sapiens) and 1 to 3 µM in the assay with A549 (Homo sapiens).
With `O=C(/C=C/c1ccc2c(c1)C(=O)CC1(CCN(Cc3ccc(F)cc3)C1)O2)NO` (racemic) [Example 11, (±)-(E)-3-[1'-(4-Fluoro-benzyl)-4-oxo-spiro(chromane-2,3'-pyrrolidine)-6-yl]-N-hydroxy-acrylamide], the IC50 on HDAC is 0.1 to 1 µM; in the assay on HCT-116 (Homo sapiens) it was ≤ 1 µM; in the assay on K562 (Homo sapiens) it was ≤ 1 µM; in the assay with A549 (Homo sapiens), ≤ 1 µM.
As to `O=C(/C=C/c1ccc2c(c1)C(=O)CC1(CCN(CCc3ccccc3)C1)O2)NO` (racemic) [Example 9, (±)-(E)-3-[1'-(2-Phenyl-ethyl)-4-oxo-spiro(chromane-2,3'-pyrrolidine)-6-yl]-N-hydroxy-acrylamide], the IC50 against HDAC was ≤ 0.1 µM; in the assay with HCT-116 (Homo sapiens) it was ≤ 1 µM; in the assay with K562 (Homo sapiens) it was ≤ 1 µM; in the assay on A549 (Homo sapiens), ≤ 1 µM.
Regarding `CC(=O)N1CCCC2(CC(=O)c3cc(/C=C/C(=O)NO)ccc3O2)C1` (racemic) [Example 16, (±)-(E)-3-[1'-Acetyl-4-oxo-spiro(chromane-2,3'-piperidine)-6-yl]-N-hydroxy-acrylamide], the IC50 against HDAC is 0.1 to 1 µM; in the assay with HCT-116 (Homo sapiens), ≥ 3 µM; with K562 (Homo sapiens), ≥ 3 µM; with A549 (Homo sapiens) it was ≥ 3 µM.
For `CN1CCCC2(CC(=O)c3cc(/C=C/C(=O)NO)ccc3O2)C1` (racemic) [Example 14, (±)-(E)-3-[1'-Methyl-4-oxo-spiro(chromane-2,3'-piperidine)-6-yl]-N-hydroxy-acrylamide], the IC50 is 0.1 to 1 µM against HDAC, ≤ 1 µM with HCT-116 (Homo sapiens), ≤ 1 µM in the assay on K562 (Homo sapiens) and ≤ 1 µM in the assay on A549 (Homo sapiens).
For `O=C(/C=C/c1ccc2c(c1)C(=O)CC1(CCCNCC1)O2)NO` (racemic) [Example 22, (±)-(E)-3-[4-Oxo-spiro(chromane-2,4'-azepane)-6-yl]-N-hydroxy-acrylamide], the IC50 at HDAC is 0.1 to 1 µM; with HCT-116 (Homo sapiens) it was 1 to 3 µM; with K562 (Homo sapiens), ≥ 3 µM; with A549 (Homo sapiens) it was ≥ 3 µM.
As for `O=C(/C=C/c1ccc2c(c1)C(=O)CC1(CCCN(C(=O)c3ccccc3)CC1)O2)NO` (racemic) [Example 25, (±)-(E)-3-[1'-Benzoyl-4-oxo-spiro(chromane-2,4'-azepane)-6-yl]-N-hydroxy-acrylamide], the IC50 at HDAC is 0.1 to 1 µM; in the assay on HCT-116 (Homo sapiens), ≤ 1 µM; with K562 (Homo sapiens), 1 to 3 µM; in the assay on A549 (Homo sapiens), ≥ 3 µM.
Taken in the same sequence, the figures for `O=C(/C=C/c1ccc2c(c1)C(=O)CC1(CN(CCc3ccc(F)cc3)C1)O2)NO` [Example 35, (E)-3-{1'-[2-(4-Fluoro-phenyl)-ethyl]-4-oxo-spiro(chromane-2,3'-azetidine)-6-yl}-N-hydroxy-acrylamide] were 0.1 to 1 µM, ≤ 1 µM, ≤ 1 µM and 1 to 3 µM.
Consider `O=C(/C=C/c1ccc2c(c1)C(=O)CC1(CCN(Cc3ccccc3)C1)O2)NO` (single isomer, unassigned; (+)) [Example 4, (+)-(E)-3-[1'-Benzyl-4-oxo-spiro(chromane-2,3'-pyrrolidine)-6-yl]-N-hydroxy-acrylamide], for which the IC50 on HDAC is ≤ 0.1 µM; in the assay on HCT-116, ≤ 1 µM; in the assay with K562, ≤ 1 µM; with A549 it was ≤ 1 µM.
As for `O=C(/C=C/c1ccc2c(c1)C(=O)NC1(CCCN(Cc3ccccc3)C1)O2)NO` (racemic) [Example 40, (±)-(E)-3-{1'-Benzyl-3,4-dihydro-4-oxo-spiro[2H-(1,3)-benzoxazine-2,3'-piperidin]-6-yl}-N-hydroxy-acrylamide], the IC50 against HDAC was ≤ 0.1 µM; in the assay with HCT-116 (Homo sapiens), ≤ 1 µM; in the assay with K562 (Homo sapiens), ≤ 1 µM; with A549 (Homo sapiens), ≤ 1 µM.
